Like-named read-outs stand apart in the source and are kept apart here.
Assays:
in vivo = settings: mouse, AUC0–120min of metformin
[1] = format: in vivo, mice; settings: mouse, kidney, intraperitoneal, 7.5 mg/kg, Metformin accumulation in the kidney
[2] = mouse, in vivo, 10 mg/kg
mouse Oct2 (mOct2) = target: T1, mouse Oct2 (mOct2) (Mus musculus, UniProt O70577); test: Inhibition of metformin accumulation in HEK-293 cells stably expressing mOct2; format: cell-based
T1 sequence (O70577 1-553): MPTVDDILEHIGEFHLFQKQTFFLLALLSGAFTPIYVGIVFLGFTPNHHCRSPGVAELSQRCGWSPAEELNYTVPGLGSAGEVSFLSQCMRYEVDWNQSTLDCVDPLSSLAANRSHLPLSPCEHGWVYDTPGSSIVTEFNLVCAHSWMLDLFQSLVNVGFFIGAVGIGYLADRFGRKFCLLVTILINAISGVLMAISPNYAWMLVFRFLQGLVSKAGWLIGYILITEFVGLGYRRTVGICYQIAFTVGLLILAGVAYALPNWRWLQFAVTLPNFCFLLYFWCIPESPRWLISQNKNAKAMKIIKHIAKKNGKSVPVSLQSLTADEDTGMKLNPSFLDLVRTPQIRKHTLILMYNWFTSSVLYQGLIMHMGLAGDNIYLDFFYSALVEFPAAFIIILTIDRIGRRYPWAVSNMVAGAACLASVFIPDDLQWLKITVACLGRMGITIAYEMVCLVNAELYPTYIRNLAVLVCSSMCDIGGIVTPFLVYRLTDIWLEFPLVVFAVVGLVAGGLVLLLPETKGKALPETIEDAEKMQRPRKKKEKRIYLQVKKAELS

mouse Mate1 (mMate1) = mouse Mate1 (mMate1) (Mus musculus, UniProt Q8K0H1); test: Inhibition of metformin accumulation in HEK-293 cells stably expressing mMate1; format: cell-based
Sequence of mouse Mate1 (mMate1) (Q8K0H1 whole entry): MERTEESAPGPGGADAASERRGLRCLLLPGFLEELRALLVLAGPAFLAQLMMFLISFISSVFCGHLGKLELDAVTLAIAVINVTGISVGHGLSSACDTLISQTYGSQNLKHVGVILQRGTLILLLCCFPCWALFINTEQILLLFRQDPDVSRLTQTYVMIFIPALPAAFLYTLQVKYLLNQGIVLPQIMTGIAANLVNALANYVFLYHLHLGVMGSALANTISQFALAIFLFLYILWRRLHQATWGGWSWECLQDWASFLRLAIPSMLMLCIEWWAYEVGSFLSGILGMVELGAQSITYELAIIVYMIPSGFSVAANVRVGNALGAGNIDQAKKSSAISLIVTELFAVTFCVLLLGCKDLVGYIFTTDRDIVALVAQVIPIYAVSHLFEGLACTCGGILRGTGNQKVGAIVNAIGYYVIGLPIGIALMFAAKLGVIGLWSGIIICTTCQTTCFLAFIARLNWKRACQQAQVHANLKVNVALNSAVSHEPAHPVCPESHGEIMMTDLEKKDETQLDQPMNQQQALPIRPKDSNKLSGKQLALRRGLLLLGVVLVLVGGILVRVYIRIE

AUC(0-t) (in vivo)	concentration at 30 min ([1]; Mate1−/− mice, saline (Fig. 4A))	concentration at 30 min ([1]; wild-type mice, saline, genotype study (Fig. 4A))	Effect on hepatic platinum accumulation [2]	Ki (mouse Oct2 (mOct2))	Ki (mouse Mate1 (mMate1))	Compound
2030 ng·h/mL	917 ± 89.6 ng/g	114 ± 21.8 ng/g				CN(C)C(=N)N=C(N)N [metformin]
			did not observe a significant effect	3.5 µM	0.07 µM	Cc1nccn1CC1CCc2c(c3ccccc3n2C)C1=O (stereo not drawn) [ondansetron]

— publication PMC3830718 (Toxicology and applied pharmacology, 2013)
